29 molecules from patent EP0810221A1 (MITSUBISHI CHEMICAL CORPORATION, priority 1995, dated 1996) can be followed below.

Assay [1] deals with T1, cathepsin B (Sigma, C-6286) (Bos taurus, UniProt P07688).
T1 construct: purchased Sigma C-6286
In words: Inhibitory activity against cathepsin B. To be noted: Inhibitory activity against cathepsin B (Table-5). It counts as biochemical. As to the method:
Inhibitory activity against cathepsin B (Sigma, C-6286) was determined according to a method described in a literature (Biochemical Journal, Vol. 201, p. 189, 1982).

A further assay addresses T2, m-Calpain (Rattus norvegicus, UniProt Q07009).
T2 construct: m-Calpain was purified from brains of rats; from tissue; host or cells: rat brain
T2 sequence (Q07009 20-700 limits assumed): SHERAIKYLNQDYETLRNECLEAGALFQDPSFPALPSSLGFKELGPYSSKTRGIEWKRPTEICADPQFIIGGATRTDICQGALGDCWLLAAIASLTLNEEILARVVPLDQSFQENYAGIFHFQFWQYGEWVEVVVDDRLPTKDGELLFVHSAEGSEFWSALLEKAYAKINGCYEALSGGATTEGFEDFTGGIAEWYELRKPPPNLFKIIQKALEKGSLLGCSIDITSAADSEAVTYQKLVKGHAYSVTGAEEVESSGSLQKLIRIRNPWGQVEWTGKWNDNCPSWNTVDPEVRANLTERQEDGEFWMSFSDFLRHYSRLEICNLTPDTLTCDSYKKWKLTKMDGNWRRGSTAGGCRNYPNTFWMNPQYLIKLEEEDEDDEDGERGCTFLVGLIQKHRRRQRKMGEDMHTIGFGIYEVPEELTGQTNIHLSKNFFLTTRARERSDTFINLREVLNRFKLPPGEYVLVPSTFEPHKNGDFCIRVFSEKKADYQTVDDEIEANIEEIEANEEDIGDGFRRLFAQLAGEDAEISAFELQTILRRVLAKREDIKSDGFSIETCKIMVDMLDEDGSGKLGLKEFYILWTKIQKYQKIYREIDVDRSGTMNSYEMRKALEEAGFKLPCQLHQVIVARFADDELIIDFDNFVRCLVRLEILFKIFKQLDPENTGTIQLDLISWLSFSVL
T2 sequence (Q64537 1-270 partner): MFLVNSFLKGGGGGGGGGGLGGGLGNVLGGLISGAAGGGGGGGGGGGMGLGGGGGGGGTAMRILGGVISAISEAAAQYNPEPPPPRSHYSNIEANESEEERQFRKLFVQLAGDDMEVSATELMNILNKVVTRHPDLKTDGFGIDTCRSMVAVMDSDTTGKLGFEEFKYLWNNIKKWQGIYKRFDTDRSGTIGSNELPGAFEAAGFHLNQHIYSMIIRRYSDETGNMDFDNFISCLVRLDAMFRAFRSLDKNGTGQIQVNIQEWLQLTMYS
In words: Inhibitory activity against calpain (m-Calpain purified from brains of rats). The format is biochemical. As to the method:
m-Calpain was purified from brains of rats according to a method described in a literature (Journal of Biological Chemistry, Vol. 259, p. 3210, 1984), and the inhibitory activity was determined in a manner according to a published method (Journal of Biological Chemistry, Vol. 259, p. 12489, 1984).

The mark [2] stands for this setting: Inhibitory activity against calpain (Table-6).
Setting [3] is: Inhibitory activity against calpain (continuation of Table-6).

A word on the IC50: it is the concentration at which inhibition is half-maximal. High values mean a need for much substance, low ones inhibition by little substance. Regarding `CC(C)C[C@H](NS(=O)(=O)c1ccccc1)C(=O)N[C@H]1CCOC1O` (stereo partly drawn) [Example 1, (3S)-3-((S)-4-methyl-2-phenylsulfonylaminovalerylamino)-2-tetrahydrofuranol], the IC50 in assay [1] worked out at 420 nM; against m-Calpain (setting [2]) it was 620 nM.
Taken in the same sequence, the figures for `CCC[C@H](NC(=O)OCc1ccccc1)C(=O)N[C@H]1CCOC1O` (stereo partly drawn) [Example 4, (3S)-3-((S)-2-benzyloxycarbonylaminovalerylamino)-2-tetrahydrofuranol] were 700 nM and 900 nM.
Regarding `CC(C)[C@H](NC(=O)OCc1ccccc1)C(=O)NC1CCOC1O` (stereo partly drawn) [Example 5, 3-((S)-2-benzyloxycarbonylamino-3-methylbutyrylamino)-2-tetrahydrofuranol], the IC50 was 980 nM in assay [1] and 2300 nM against m-Calpain (setting [2]).
With `CCCC[C@H](NC(=O)OCc1ccccc1)C(=O)N[C@H]1CCOC1O` (stereo partly drawn) [Example 6, (3S)-3-((S)-2-benzyloxycarbonylaminohexanoylamino)-2-tetrahydrofuranol], the results for the IC50 (in assay [1]; on m-Calpain (setting [2])) were 1350 nM and 2300 nM, respectively.
The corresponding values for `CCC(C)[C@H](NC(=O)OCc1ccccc1)C(=O)N[C@H]1CCOC1O` (stereo partly drawn) [Example 7, (3S)-3-((2S)-2-benzyloxycarbonylamino-3-methylvalerylamino)-2-tetrahydrofuranol] are 900 nM and 2400 nM.
The corresponding values for `CC(C)C[C@H](NC(=O)OC(C)(C)C)C(=O)N[C@H]1CCOC1O` (stereo partly drawn) [Example 10, (3S)-3-((S)-2-tert-butoxycarbonylamino-4-methylvalerylamino)-2-tetrahydrofuranol] are 370 nM and 960 nM.
On to `CC(C)COC(=O)N[C@@H](CC(C)C)C(=O)N[C@H]1CCOC1O` (stereo partly drawn) [Example 11, (3S)-3-((S)-2-isobutoxycarbonylamino-4-methylvalerylamino)-2-tetrahydrofuranol], for which the half-inhibitory concentration (IC50) in assay [1] was determined as 2150 nM; against m-Calpain (setting [2]), 1100 nM.
Taken in the same sequence, the figures for `CC(C)C[C@H](NC(=O)OCC1CCCCC1)C(=O)N[C@H]1CCOC1O` (stereo partly drawn) [Example 12, (3S)-3-((S)-2-cyclohexylmethoxycarbonylamino-4-methylvalerylamino)-2-tetrahydrofuranol] were 1200 nM and 650 nM.
The corresponding values for `CC(C)C[C@H](NC(=O)OCc1ccccc1)C(=O)N[C@H]1CCOC1O` (stereo partly drawn) [Example 13, (3S)-3-((S)-2-benzyloxycarbonylamino-4-methylvalerylamino)-2-tetrahydrofuranol] are 380 nM and 660 nM.
The corresponding values for `CC(C)C[C@H](NC(=O)OCc1ccc(F)cc1)C(=O)N[C@H]1CCOC1O` (stereo partly drawn) [Example 15, (3S)-3-{(S)-2-(4-fluorobenzyloxycarbonylamino)-4-methylvalerylamino}-2-tetrahydrofuranol] are 700 nM and 680 nM.
Regarding `CC(C)C[C@H](NC(=O)OCc1ccccc1Cl)C(=O)N[C@H]1CCOC1O` (stereo partly drawn) [Example 16, (3S)-3-{(S)-2-(2-chlorobenzyloxycarbonylamino)-4-methylvalerylamino}-2-tetrahydrofuranol], the IC50 in assay [1] stood at 1000 nM; against m-Calpain (setting [2]), 340 nM.
The corresponding values for `CC(C)C[C@H](NC(=O)OCc1ccc(Cl)cc1)C(=O)N[C@H]1CCOC1O` (stereo partly drawn) [Example 17, (3S)-3-{(S)-2-(4-chlorobenzyloxycarbonylamino)-4-methylvalerylamino}-2-tetrahydrofuranol] are 640 nM and 390 nM.
Regarding `Cc1ccccc1COC(=O)N[C@@H](CC(C)C)C(=O)N[C@H]1CCOC1O` (stereo partly drawn) [Example 18, (3S)-3-{(S)-4-methyl-2-(2-methylbenzyloxycarbonylamino)valerylamino}-2-tetrahydrofuranol], the values for the IC50 (in assay [1]; against m-Calpain (setting [2])) were 580 nM and 440 nM, respectively.
Taken in the same sequence, the figures for `Cc1ccc(COC(=O)N[C@@H](CC(C)C)C(=O)N[C@H]2CCOC2O)cc1` (stereo partly drawn) [Example 19, (3S)-3-{(S)-4-methyl-2-(4-methylbenzyloxycarbonylamino)valerylamino}-2-tetrahydrofuranol] were 890 nM and 480 nM.
Regarding `COc1ccccc1COC(=O)N[C@@H](CC(C)C)C(=O)N[C@H]1CCOC1O` (stereo partly drawn) [Example 20, (3S)-3-{(S)-2-(2-methoxybenzyloxycarbonylamino)-4-methylvalerylamino)-2-tetrahydrofuranol], the IC50 in assay [1] amounted to 1050 nM; on m-Calpain (setting [2]), 560 nM.
Taken in the same sequence, the figures for `COc1ccc(COC(=O)N[C@@H](CC(C)C)C(=O)N[C@H]2CCOC2O)cc1` (stereo partly drawn) [Example 21, (3S)-3-{(S)-2-(4-methoxybenzyloxycarbonylamino)-4-methylvalerylamino}-2-tetrahydrofuranol] were 1170 nM and 340 nM.
On to `CC(C)C[C@H](NC(=O)OCC1CCCCO1)C(=O)N[C@H]1CCOC1O` (stereo partly drawn) [Example 24, (3S)-3-{(S)-4-methyl-2-(2-tetrahydropyranylmethoxycarbonylamino)valerylamino}-2-tetrahydrofuranol], for which the results for the concentration for half-maximal inhibition (IC50) (in assay [1]; against m-Calpain (setting [2])) were 2900 nM and 1300 nM, respectively.
Taken in the same sequence, the figures for `CC(C)C[C@H](NC(=O)OCc1ccccn1)C(=O)N[C@H]1CCOC1O` (stereo partly drawn) [Example 25, (3S)-3-{(S)-4-methyl-2-(2-pyridylmethoxycarbonylamino)valerylamino}-2-tetrahydrofuranol] were 2900 nM and 1050 nM.
The corresponding values for `CC(C)C[C@H](NC(=O)OC1CCCCC1)C(=O)N[C@H]1CCOC1O` (stereo partly drawn) [Example 27, (3S)-3-((S)-2-cyclohexyloxycarbonylamino-4-methylvalerylamino)-2-tetrahydrofuranol] are 1200 nM and 650 nM.
The corresponding values for `CC(C)C[C@H](NC(=O)Oc1ccccc1)C(=O)N[C@H]1CCOC1O` (stereo partly drawn) [Example 28, (3S)-3-((S)-4-methyl-2-phenoxycarbonylaminovalerylamino)-2-tetrahydrofuranol] are 1700 nM and 520 nM.
On to `CC(C)C[C@H](NC(=O)Cc1cccc2ccccc12)C(=O)N[C@H]1CCOC1O` (stereo partly drawn) [Example 33, (3S)-3-{(S)-4-methyl-2-(1-naphthylacetylamino)valerylamino}-2-tetrahydrofuranol], for which the half-maximal inhibitory concentration (IC50) in assay [1] came out at 950 nM; at m-Calpain (setting [2]), 110 nM.
The corresponding values for `CC(C)C[C@H](NC(=O)COc1ccccc1)C(=O)N[C@H]1CCOC1O` (stereo partly shown) [Example 34] are 1350 nM and 330 nM.
Consider `CC(C)C[C@H](NC(=O)c1ccccc1)C(=O)N[C@H]1CCOC1O` (stereo partly drawn) [Example 39, (3S)-3-((S)-2-benzoylamino-4-methylvalerylamino)-2-tetrahydrofuranol], for which the IC50 is 200 nM in assay [1] and 370 nM against m-Calpain (setting [2]).
As for `CC(C)C[C@H](NC(=O)c1ccccc1F)C(=O)N[C@H]1CCOC1O` (stereo partly drawn) [Example 40, (3S)-3-{(S)-2-(2-fluorobenzoylamino)-4-metylvalerylamino}-2-tetrahydrofuranol], the IC50 in assay [1] turned out to be 1000 nM.
Still for that read-out and setting: to `Cc1ccc(C(=O)N[C@@H](CC(C)C)C(=O)N[C@H]2CCOC2O)cc1` (stereo partly drawn) [Example 46, (3S)-3-{(S)-4-methyl-2-(4-methylbenzoylamino)valerylamino}-2-tetrahydorofuranol] belongs 270 nM.
At m-Calpain (setting [3]), `CC(C)C[C@H](NS(=O)(=O)c1cccc([N+](=O)[O-])c1)C(=O)N[C@H]1CCOC1O` (stereo partly drawn) [Example 74, (3S)-3-{(S)-4-methyl-2-(3-nitrophenylsulfonylamino)valerylamino}-2-tetrahydrofuranol] came in with a 50% inhibitory concentration (IC50) of 950 nM.
`O=C(N[C@@H](Cc1ccccc1)C(=O)N[C@H]1CCOC1O)OCc1ccccc1` (stereo partly drawn) [Example 78, (3S)-3-((S)-2-benzyloxycarbonylamino-3-phenylpropionylamino)-2-tetrahydrofuranol]: in assay [1], the half-inhibitory concentration (IC50) is 300 nM.
The molecule `CC(C)C[C@H](NS(=O)(=O)c1ccccc1)C(=O)N[C@H]1C(C)COC1O` (stereo partly drawn) [Example 80, (3S)-4-methyl-3-((S)-4-methyl-2-phenylsulfonylaminovalerylamino)-2-tetrahydrofuranol] showed an IC50 against m-Calpain (setting [3]) of 2800 nM.
Same read-out and setting: the same measure for `CC(C)C[C@H](NC(=O)OCc1ccccc1)C(=O)N[C@H]1CCCOC1O` (stereo partly shown) [Example 81]: 1550 nM.
